Molecular target: T1, Tyrosine-protein phosphatase non-receptor type 11 (Homo sapiens, UniProt Q06124)
T1 sequence (Q06124 whole entry): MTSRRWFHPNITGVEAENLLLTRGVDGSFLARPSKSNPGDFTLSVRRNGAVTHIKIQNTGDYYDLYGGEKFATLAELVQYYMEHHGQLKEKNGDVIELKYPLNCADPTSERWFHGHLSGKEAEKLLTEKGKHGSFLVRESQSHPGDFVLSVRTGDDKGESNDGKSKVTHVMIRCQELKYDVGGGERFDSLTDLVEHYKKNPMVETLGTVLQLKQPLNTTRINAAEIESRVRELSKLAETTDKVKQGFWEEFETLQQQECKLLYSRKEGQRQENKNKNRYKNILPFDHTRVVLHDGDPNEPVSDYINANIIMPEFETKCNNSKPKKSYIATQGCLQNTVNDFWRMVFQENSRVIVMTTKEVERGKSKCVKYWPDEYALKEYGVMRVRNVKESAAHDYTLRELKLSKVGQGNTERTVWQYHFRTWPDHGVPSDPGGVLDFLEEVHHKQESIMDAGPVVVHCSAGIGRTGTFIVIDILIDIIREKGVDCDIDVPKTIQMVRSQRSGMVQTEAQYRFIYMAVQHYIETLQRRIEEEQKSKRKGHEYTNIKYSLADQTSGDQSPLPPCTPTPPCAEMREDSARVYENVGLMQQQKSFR
Assay: Inhibition of SHP2 (unknown origin)

Molecule CC1(N)CCN(c2cnc(Sc3cccc(Cl)c3Cl)c(N)n2)CC1 has an IC50 of 30 nM.

From ChEMBL document CHEMBL5338798, “An Analysis of Successful Hit-to-Clinical Candidate Pairs” (J Med Chem, 2023)
